This passage reports remaining activity results from patent publication US20100063085A1, “METHOD OF TREATING LEARNING IMPAIRMENT IN DOWN'S SYNDROME SUBJECTS” (University Court of The University of Dundee, priority 2008, published 2010).

Each structure is given as a SMILES string. Like-named read-outs stand apart in the source and are kept apart here.

What all share (experiment): biochemical
In test [1] the target is MAPKAP-K3 (Homo sapiens, UniProt Q16644). The note with it: read-out: MAPKAP-K3 activity as percentage of control without inhibitor. On the procedure:
(§1) All assays (25.5 μl) were carried out at room temperature (21° C.) and were linear with respect to time and enzyme concentrations under the conditions used. Assays were performed for 30 minutes except assays for LCK and PKB which were performed for 15 minutes using Multidrop Micro reagent dispensers (Thermo Electron Corporation, Waltham, Mass. 02454, USA) in a 96-well format. The concentration of […] [γ-^33P] ATP (800 cpm/pmol) in the assays was one of three concentrations (5, 20 or 50 μM) in order to be at or below Km for ATP for the enzyme. Assays were initiated with MgATP and stopped by addition of 5 μl of 0.5M orthophosphoric acid. Assays were then harvested onto P81 filterplates using a unifilter harvester (PerkinElmer, Boston, Mass. 02118, USA), with a wash buffer of 50 mM orthophosphoric acid. Filterplates were then air dried overnight. 10 μl of Microscint O was added per well prior to counting for radioactivity.
(§2) The following kinases were assayed against the substrates indicated. Aurora B was assayed against the substrate peptide […] (300 μM), ERK8 and MST-2 were both assayed against MBP (0.33 mg/ml). IKKβ was assayed against the substrate peptide […] (300 μM), JNK3 was assayed against 3 μM ATF2[19-96]. MAPKAP-K3 and PKD1 were both assayed against […] (30 μM), MARK3 was assayed against CHKtide ([…]) substrate peptide (300 μM). MNK1 and MNK2 were both assayed against eIF4E protein (0.5 mg/ml). NEK7 was assayed against […] (300 μM), PIM2 was assayed against […] (300 μM), ΔPH PKBβ-S474D was assayed against Crosstide (30 μM), PLK1 was assayed against […] (300 μM). PRK2 was assayed against Long S6 peptide, […] (30 μM), RSK2 was assayed against […] (30 μM), SRC was assayed against cdc2 peptide, […], (300 μM) and SRPK1 was assayed against peptide […] (300 μM). All enzymes were diluted in 50 mM Tris/HCl pH 7.5, 0.1 mM EGTA, 1 mg/ml BSA, 0.1% β-mercaptoethanol buffer and assayed in an incubation containing 50 mM Tris/HCl pH7.5, 0.1 mM EGTA, 0.1% β-mercaptoethanol, CAMK-1 (5-20 mU) diluted in 50 mM Tris/HCl pH 7.5, 0.1 mM EGTA, 1 mg/ml BSA, 0.1% β-mercaptoethanol is assayed against substrate peptide […] in an incubation containing 50 mM Tris/HCl pH 7.5, 0.1 mM EGTA, 0.5 mM CaCl2, 0.3 μM calmodulin, 0.1% β-mereaptoethanol, 300 μM substrate peptide, 10 mM magnesium acetate and 0.05 mM [^33P-γ-ATP] (500-1000 cpm/pmole). EF2K (5-20 mU) diluted in 50 mM Hepes pH 6.6, 0.1% β-mercaptoethanol, 1 mg/ml BSA is assayed against a substrate peptide […] in an incubation containing 50 mM Hepes pH 6.6, 0.2 mM CaCl2, 0.3 μM Calmodulin, 0.05% b-mercaptoethanol, 300 μM substrate peptide, 10 mM magnesium acetate and 0.05 mM [^33P-γ-ATP] (500-1000 cpm/pmole).

The target in test [2] is CAMK-1 (Homo sapiens, UniProt Q14012). The note with it: read-out: CAMK-1 activity as percentage of control without inhibitor. On the procedure: as §1, §2
Test [3] concerns the target Aurora B (Homo sapiens, UniProt Q96GD4). The note with it: read-out: Aurora B activity as percentage of control without inhibitor. On the procedure:
as §1, §2

The target in test [4] is MNK1 (Homo sapiens, UniProt Q9BUB5). The note with it: read-out: MNK1 activity as percentage of control without inhibitor. On the procedure: as §1, §2
The target in test [5] is T1, MST2 (Homo sapiens, UniProt Q13188).
T1 sequence (Q13188 1-491): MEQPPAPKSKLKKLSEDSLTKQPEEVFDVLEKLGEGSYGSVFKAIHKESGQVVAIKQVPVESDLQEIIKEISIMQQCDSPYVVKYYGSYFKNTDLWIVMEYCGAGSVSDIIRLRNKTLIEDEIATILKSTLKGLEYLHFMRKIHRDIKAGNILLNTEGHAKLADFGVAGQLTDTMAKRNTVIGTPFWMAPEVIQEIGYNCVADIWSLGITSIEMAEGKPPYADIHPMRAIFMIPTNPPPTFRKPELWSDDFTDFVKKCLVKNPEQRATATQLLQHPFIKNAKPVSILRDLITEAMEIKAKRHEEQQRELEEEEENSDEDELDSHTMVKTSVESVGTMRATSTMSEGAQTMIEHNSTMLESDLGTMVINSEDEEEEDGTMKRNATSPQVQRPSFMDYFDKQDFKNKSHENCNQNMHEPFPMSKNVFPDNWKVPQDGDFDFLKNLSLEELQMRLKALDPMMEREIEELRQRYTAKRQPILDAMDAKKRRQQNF
The note with it: read-out: MST2 activity as percentage of control without inhibitor. On the procedure:
as §1, §2

In test [6] the target is NEK7 (Homo sapiens, UniProt Q8TDX7). As to conditions: read-out: NEK7 activity as percentage of control without inhibitor. On the procedure:
as §1, §2

The target in test [7] is MNK2 (Homo sapiens, UniProt Q9HBH9). As to conditions: read-out: MNK2 activity as percentage of control without inhibitor. On the procedure: as §1, §2
Chain of MNK2 (Q9HBH9 whole entry, species assumed): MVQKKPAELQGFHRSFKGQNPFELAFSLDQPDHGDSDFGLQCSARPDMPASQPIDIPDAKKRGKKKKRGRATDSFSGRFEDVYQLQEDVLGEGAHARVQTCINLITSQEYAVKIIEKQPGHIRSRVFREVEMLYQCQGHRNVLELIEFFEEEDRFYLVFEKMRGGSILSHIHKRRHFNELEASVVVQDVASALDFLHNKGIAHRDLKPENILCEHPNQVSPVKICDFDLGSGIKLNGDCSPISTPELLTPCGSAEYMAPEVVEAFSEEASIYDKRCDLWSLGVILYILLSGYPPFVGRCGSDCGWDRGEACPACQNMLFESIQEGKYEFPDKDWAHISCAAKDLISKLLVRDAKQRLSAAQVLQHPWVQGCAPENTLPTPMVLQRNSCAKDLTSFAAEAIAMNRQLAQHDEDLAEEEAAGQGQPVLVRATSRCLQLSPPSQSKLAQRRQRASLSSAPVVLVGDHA

Chain of Aurora B (Q96GD4 whole entry): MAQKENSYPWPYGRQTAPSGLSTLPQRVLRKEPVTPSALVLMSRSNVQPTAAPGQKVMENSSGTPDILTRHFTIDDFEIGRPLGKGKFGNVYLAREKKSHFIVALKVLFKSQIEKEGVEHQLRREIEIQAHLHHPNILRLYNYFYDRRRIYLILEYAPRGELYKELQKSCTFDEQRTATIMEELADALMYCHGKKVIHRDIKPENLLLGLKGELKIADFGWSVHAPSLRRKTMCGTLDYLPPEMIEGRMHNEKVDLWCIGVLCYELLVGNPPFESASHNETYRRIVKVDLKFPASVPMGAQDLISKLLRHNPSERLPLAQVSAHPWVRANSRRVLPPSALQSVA
Chain of MAPKAP-K3 (Q16644 whole entry, species assumed): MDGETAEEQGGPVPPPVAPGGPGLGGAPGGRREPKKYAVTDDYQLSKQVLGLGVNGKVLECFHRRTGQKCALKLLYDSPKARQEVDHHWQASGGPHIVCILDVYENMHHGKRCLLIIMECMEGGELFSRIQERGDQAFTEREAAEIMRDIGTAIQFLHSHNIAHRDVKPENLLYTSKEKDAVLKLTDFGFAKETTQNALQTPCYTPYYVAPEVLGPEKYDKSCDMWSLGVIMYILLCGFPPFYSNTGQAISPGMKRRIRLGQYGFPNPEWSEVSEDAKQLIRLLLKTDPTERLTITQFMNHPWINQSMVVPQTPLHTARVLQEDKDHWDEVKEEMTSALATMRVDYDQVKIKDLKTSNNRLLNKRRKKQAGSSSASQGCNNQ
Chain of MNK1 (Q9BUB5 whole entry, species assumed): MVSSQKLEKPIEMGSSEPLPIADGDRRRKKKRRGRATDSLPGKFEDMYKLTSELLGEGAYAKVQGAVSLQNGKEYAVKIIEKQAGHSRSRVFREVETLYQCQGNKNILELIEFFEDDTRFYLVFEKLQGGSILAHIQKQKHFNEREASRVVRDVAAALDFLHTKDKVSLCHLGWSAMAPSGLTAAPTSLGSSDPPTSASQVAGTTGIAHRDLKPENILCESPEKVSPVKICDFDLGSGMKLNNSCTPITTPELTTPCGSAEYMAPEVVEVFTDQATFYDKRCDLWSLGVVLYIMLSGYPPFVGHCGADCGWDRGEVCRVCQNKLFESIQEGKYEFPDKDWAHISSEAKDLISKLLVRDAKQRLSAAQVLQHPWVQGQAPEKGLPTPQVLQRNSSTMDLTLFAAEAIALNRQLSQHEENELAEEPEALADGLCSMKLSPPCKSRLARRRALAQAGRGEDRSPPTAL
Chain of NEK7 (Q8TDX7 whole entry, species assumed): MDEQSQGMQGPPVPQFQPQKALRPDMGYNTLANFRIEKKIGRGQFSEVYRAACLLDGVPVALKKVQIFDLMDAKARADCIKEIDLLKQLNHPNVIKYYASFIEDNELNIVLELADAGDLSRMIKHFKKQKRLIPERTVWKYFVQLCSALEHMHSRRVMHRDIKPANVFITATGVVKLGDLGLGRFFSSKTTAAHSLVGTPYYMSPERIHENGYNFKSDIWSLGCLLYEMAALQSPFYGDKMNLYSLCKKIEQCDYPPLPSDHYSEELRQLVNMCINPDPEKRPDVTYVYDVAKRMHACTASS

As to `COc1ccc2c(c1)[nH]c1c(C)nccc12` [Harmine], the remaining activity at 1 µM was determined as 89% in test [1]; 107% in test [2]; 100% in test [3]; 84% in test [4]; 91% in test [5]; 90% in test [6]. Besides, the remaining activity at 1 µM in test [7] worked out at 84%. Moreover, the remaining activity at 10 µM in test [1] came to 93%; in test [2], 94%; in test [3], 102%; in test [4] it was 52%; in test [5], 81%; in test [6] it was 92%. Moreover, in test [7], the remaining activity at 10 µM stood at 98%.

Take `CC1=NCCc2c1[nH]c1cc(O)ccc21` [Harmalol]: the remaining activity at 1 µM in test [1] (inhibitor 1 μM) was 95%; in test [2] (inhibitor 1 μM), 93%; in test [3] (inhibitor 1 μM), 110%; in test [4] (inhibitor 1 μM), 80%; in test [5] (inhibitor 1 μM) it was 85%; in test [6] (inhibitor 1 μM) it was 83%. Besides, in test [7] (inhibitor 1 μM), the remaining activity at 1 µM was found to be 97%. For the same molecule, the remaining activity at 10 µM in test [1] (inhibitor 10 μM) was found to be 88%; in test [2] (inhibitor 10 μM) it was 60%; in test [3] (inhibitor 10 μM), 83%; in test [4] (inhibitor 10 μM), 48%; in test [5] (inhibitor 10 μM) it was 74%; in test [6] (inhibitor 10 μM), 56%. Besides, the remaining activity at 10 µM in test [7] (inhibitor 10 μM) is 71%.

As for `COc1ccc2c3c([nH]c2c1)C(C)=NCC3` [Harmaline], the remaining activity at 1 µM in test [1] (inhibitor 1 μM) is 79%; in test [2] (inhibitor 1 μM) it was 99%; in test [3] (inhibitor 1 μM) it was 98%; in test [4] (inhibitor 1 μM), 89%; in test [5] (inhibitor 1 μM), 98%; in test [6] (inhibitor 1 μM), 95%. Also, the remaining activity at 1 µM in test [7] (inhibitor 1 μM) was determined as 88%. For the same molecule, the remaining activity at 10 µM in test [1] (inhibitor 10 μM) turned out to be 82%; in test [2] (inhibitor 10 μM), 110%; in test [3] (inhibitor 10 μM), 112%; in test [4] (inhibitor 10 μM), 82%; in test [5] (inhibitor 10 μM), 105%; in test [6] (inhibitor 10 μM) it was 115%. The remaining activity at 10 µM in test [7] (inhibitor 10 μM) was determined as 77%.
